Measured values from the supplement of paper PMC12076712.

Tests used:
Test in all cases: pIC50, kinobeads binding competition
[1] = target: BMPR1A (UniProt P36894)
In short: (§1)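 Fold changes relative to vehicle, from biological duplicates, were fitted with logistic dose-response models in the R drc package to give pIC50. These fold changes came from TMT10 LC-MS/MS quantification of digested Kinobeads-bound proteins. Compound was applied at nine concentrations (top 30 μM) either to live Jurkat cells in 1:4 steps for 60 min at 37 °C before lysis, or to Jurkat lysate or a 1:1:1:1 HEK293/K-562/HepG2/placenta lysate mix in 1:5 steps for 60 min at 4 °C.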

[2] = target: CAMKK1 (UniProt Q8N5S9)
In short: as §1

[3] = target: EIF2AK4 (UniProt Q9P2K8)
In short: as §1

[4] = target: LRRK2 (UniProt Q5S007); conditions: cell material: Lysate mix
In short: as §1

[5] = target: MYLK (UniProt Q15746); conditions: cell material: Lysate mix
In short: as §1

[6] = target: T1, MYLK3 (UniProt Q32MK0); conditions: cell material: Lysate mix
T1 sequence (whole entry): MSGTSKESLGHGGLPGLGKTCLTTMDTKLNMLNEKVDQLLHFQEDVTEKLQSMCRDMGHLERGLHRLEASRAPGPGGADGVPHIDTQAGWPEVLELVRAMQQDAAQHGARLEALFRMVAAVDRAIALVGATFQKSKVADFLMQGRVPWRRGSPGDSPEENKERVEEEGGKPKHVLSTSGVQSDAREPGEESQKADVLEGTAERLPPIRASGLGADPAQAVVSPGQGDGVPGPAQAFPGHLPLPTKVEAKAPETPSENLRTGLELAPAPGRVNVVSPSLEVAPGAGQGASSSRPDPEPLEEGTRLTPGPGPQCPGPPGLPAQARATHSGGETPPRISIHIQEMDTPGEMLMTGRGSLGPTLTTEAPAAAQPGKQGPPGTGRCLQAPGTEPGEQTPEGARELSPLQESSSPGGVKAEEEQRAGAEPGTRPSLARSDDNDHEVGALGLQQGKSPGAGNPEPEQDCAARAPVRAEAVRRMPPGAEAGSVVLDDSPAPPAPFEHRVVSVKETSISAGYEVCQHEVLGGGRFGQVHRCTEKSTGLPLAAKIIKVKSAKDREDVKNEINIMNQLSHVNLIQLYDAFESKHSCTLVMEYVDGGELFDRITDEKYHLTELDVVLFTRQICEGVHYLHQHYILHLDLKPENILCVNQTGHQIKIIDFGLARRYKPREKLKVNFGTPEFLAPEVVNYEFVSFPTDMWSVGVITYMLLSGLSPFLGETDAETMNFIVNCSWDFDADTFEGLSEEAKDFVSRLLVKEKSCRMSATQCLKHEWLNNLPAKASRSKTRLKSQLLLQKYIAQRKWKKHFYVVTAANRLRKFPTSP
In short: as §1

[7] = target: T2, NEK9 (UniProt Q8TD19)
T2 sequence (whole entry): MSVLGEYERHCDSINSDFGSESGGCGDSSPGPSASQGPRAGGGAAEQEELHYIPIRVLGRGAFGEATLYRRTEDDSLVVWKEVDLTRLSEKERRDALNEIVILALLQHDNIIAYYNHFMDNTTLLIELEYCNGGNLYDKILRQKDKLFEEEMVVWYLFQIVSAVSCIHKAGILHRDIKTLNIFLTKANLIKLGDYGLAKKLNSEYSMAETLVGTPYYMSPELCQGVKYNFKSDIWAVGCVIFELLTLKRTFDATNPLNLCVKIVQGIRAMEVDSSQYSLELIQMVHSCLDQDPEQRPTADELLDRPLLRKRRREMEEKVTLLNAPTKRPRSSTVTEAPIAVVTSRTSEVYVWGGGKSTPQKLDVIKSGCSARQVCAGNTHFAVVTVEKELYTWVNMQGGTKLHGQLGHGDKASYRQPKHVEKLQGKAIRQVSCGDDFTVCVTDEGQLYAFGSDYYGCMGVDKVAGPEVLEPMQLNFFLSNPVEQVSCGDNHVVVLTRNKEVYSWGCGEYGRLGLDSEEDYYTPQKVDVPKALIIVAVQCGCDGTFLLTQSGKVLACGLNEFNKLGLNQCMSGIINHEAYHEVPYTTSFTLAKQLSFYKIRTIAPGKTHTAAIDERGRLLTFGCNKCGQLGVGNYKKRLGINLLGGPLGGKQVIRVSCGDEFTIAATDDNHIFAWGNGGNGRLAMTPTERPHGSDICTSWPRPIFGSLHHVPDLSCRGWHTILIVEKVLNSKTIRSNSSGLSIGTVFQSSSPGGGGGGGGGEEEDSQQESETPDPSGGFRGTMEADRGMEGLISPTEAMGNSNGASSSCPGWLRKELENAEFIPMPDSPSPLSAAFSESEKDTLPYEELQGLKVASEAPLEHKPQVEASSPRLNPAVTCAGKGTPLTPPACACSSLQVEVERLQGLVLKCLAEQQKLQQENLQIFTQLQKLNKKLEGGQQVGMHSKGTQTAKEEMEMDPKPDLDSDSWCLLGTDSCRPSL
In short: as §1

[8] = target: T3, PIP4K2A (UniProt P48426)
T3 sequence (whole entry): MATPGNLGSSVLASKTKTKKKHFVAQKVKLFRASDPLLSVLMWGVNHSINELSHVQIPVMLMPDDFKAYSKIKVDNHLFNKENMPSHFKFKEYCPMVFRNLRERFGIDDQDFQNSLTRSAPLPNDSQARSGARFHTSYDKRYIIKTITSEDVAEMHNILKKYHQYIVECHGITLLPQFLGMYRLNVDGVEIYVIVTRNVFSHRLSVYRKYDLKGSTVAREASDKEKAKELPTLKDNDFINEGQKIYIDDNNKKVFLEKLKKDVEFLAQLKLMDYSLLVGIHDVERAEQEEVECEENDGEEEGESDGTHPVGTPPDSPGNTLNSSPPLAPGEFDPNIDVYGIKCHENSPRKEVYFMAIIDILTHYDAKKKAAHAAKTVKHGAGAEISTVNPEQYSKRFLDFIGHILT
In short: as §1

[9] = target: UniProt P27361
In short: as §1

[10] = target: UniProt Q13233
In short: as §1

[11] = target: UniProt Q9H0K1
In short: as §1

LRRK2, sequence (Q5S007 whole entry): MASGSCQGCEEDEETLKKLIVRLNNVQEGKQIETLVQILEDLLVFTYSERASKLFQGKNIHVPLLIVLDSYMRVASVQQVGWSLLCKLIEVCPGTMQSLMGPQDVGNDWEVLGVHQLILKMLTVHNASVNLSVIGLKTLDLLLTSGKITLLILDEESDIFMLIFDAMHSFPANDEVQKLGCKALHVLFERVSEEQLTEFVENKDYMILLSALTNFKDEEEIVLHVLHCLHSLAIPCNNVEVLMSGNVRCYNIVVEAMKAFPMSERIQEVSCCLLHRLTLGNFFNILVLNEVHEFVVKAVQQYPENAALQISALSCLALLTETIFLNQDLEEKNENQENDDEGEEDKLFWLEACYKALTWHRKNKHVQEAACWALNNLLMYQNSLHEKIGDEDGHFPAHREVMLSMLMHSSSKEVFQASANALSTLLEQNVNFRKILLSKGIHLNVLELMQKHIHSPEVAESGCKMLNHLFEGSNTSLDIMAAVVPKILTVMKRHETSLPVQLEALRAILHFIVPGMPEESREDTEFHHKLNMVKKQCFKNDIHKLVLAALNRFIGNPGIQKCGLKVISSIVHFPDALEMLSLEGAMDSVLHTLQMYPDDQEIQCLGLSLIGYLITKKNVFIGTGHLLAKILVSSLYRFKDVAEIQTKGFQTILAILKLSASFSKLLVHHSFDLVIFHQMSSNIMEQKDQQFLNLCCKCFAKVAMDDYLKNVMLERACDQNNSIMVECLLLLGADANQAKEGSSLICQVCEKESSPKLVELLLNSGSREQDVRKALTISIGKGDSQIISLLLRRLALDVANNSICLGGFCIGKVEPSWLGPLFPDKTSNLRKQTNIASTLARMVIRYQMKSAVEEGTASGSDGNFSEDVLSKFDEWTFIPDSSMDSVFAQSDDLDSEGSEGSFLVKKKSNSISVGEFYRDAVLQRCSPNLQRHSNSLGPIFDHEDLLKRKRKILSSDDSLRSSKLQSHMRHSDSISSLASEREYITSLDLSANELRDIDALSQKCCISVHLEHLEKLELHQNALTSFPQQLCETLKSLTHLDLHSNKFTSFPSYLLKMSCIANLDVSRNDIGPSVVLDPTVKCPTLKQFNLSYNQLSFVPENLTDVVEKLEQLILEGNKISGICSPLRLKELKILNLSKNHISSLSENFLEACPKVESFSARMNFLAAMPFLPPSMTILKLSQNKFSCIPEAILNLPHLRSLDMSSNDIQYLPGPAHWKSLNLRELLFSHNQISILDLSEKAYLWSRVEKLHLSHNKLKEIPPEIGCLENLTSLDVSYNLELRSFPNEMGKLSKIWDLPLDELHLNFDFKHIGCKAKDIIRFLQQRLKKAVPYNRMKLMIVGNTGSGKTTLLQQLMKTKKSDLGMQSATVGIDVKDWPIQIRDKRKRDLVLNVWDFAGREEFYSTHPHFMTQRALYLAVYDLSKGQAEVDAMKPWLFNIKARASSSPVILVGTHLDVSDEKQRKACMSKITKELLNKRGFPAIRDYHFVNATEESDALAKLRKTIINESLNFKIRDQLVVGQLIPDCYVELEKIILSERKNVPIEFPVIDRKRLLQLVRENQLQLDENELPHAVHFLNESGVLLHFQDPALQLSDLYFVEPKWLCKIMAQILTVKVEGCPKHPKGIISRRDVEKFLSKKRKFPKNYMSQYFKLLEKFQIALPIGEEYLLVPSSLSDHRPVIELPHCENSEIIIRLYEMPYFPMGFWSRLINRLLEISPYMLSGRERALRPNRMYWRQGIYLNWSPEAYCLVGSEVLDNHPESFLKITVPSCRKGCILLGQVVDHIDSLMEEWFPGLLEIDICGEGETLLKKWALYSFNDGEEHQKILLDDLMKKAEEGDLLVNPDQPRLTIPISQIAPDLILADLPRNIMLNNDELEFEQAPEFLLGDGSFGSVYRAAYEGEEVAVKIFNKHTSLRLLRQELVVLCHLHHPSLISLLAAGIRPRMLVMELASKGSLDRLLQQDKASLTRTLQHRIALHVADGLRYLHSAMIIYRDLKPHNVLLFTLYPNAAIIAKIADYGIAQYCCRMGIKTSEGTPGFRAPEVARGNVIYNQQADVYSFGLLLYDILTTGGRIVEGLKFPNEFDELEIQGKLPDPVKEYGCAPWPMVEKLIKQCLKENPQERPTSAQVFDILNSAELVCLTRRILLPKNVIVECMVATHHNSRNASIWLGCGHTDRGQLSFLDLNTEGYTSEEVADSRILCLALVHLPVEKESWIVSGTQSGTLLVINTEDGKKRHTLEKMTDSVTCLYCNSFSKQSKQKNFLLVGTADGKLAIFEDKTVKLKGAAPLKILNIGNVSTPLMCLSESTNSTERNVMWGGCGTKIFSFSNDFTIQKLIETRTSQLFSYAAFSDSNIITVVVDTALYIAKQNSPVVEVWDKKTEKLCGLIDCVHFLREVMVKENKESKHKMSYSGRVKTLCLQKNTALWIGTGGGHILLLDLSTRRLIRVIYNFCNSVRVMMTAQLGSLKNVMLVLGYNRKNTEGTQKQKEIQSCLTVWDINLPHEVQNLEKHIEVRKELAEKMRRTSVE
CAMKK1, sequence (Q8N5S9 whole entry, looked up): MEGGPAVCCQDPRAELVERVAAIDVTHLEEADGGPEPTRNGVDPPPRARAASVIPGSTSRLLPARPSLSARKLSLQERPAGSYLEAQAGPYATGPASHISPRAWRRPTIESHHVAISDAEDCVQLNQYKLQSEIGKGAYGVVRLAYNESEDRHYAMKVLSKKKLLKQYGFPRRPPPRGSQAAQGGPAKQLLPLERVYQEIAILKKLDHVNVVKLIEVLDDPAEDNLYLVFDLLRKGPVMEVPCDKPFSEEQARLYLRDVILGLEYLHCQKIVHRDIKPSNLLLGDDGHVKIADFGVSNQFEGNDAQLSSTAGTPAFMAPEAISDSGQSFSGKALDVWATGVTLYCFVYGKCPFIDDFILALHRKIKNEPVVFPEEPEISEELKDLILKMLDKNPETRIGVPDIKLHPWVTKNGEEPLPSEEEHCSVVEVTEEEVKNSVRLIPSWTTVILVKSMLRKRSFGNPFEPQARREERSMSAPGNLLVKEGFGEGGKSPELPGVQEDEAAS
UniProt Q13233, sequence (Q13233 whole entry): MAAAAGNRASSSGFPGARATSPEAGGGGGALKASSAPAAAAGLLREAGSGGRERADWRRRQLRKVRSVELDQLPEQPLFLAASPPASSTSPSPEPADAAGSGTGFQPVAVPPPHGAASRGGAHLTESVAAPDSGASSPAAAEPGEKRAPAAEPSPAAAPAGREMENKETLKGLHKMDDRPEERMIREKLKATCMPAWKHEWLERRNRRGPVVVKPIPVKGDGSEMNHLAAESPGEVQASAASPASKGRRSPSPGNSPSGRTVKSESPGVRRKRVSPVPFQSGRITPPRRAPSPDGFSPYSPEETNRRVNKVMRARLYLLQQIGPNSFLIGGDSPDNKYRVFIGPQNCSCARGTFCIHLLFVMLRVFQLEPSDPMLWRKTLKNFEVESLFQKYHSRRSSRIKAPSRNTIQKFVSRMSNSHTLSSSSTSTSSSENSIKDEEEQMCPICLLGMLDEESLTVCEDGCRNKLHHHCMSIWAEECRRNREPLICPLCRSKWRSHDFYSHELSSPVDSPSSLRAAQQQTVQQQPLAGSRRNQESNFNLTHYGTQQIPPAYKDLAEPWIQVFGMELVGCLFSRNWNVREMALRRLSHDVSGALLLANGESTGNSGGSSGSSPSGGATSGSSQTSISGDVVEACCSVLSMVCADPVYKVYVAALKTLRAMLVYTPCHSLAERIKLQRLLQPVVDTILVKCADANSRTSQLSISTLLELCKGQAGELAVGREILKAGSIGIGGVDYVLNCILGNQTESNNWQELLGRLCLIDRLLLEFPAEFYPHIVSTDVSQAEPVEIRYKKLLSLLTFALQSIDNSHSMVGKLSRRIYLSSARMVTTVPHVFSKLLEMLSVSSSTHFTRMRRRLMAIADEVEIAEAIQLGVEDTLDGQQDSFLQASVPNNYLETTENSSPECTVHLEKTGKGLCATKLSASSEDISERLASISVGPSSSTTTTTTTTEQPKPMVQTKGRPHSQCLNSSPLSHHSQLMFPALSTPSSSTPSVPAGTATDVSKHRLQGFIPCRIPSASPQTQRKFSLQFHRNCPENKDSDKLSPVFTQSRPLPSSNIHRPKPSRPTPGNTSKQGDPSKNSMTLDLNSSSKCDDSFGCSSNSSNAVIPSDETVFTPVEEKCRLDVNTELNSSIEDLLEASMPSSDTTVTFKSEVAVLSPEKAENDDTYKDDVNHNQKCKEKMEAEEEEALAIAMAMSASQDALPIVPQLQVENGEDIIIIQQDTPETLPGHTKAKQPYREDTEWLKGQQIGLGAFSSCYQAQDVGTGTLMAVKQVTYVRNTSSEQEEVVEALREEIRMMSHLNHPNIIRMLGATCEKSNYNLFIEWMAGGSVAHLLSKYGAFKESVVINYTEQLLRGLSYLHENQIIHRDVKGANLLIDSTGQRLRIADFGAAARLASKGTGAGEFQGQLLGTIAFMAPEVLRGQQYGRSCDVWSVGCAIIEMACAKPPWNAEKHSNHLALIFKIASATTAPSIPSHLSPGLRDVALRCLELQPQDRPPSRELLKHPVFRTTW
BMPR1A, sequence (P36894 whole entry): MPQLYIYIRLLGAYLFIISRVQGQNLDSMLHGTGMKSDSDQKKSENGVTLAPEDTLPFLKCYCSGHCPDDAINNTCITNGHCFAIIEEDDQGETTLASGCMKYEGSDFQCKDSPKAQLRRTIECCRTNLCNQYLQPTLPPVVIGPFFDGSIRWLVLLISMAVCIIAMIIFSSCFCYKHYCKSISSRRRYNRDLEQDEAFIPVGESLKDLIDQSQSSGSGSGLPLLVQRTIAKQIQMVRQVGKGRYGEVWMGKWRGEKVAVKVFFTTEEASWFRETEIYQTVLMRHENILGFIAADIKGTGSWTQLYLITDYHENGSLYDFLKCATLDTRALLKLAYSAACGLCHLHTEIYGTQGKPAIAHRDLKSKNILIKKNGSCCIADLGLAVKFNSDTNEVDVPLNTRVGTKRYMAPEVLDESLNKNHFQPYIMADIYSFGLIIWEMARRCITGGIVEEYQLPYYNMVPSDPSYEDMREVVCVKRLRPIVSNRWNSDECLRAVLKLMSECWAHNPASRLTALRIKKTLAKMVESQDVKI

SMILES	pIC50 ([1]; cell material: Lysate mix)	pIC50 ([2]; cell material: Lysate mix)	pIC50 ([3]; cell material: Lysate mix)	pIC50 [4]	pIC50 [5]	pIC50 [6]	pIC50 ([8]; cell material: Lysate mix)	pIC50 ([9]; cell material: Lysate mix)	pIC50 ([10]; cell material: Jurkat cells)	pIC50 ([10]; cell material: Lysate mix)	pIC50 ([11]; cell material: Lysate mix)	pIC50 ([1]; cell material: Jurkat cells)	pIC50 ([1]; cell material: Jurkat lysate)	pIC50 ([2]; cell material: Jurkat cells)	pIC50 ([2]; cell material: Jurkat lysate)	pIC50 ([3]; cell material: Jurkat cells)	pIC50 ([3]; cell material: Jurkat lysate)	pIC50 ([7]; cell material: Jurkat cells)	pIC50 ([7]; cell material: Jurkat lysate)	pIC50 ([7]; cell material: Lysate mix)	pIC50 ([8]; cell material: Jurkat cells)	pIC50 ([8]; cell material: Jurkat lysate)	pIC50 ([9]; cell material: Jurkat lysate)	pIC50 ([10]; cell material: Jurkat lysate)	pIC50 ([11]; cell material: Jurkat cells)	pIC50 ([11]; cell material: Jurkat lysate)	pIC50 ([9]; cell material: Jurkat cells)
O=C(NCCNC(=O)c1cc(Nc2cc(C3CC3)[nH]n2)nc(N2CCN(Cc3ccc(S(=O)(=O)F)cc3)CC2)n1)OC1CC/C=C/CCC1 (stereo not given)	< 4.52	6.42	< 4.52	< 4.52	< 4.52	< 4.52	< 4.52	< 4.52	< 4.52	< 4.52	< 4.52	< 4.52	< 4.52	6.77	6.72	5.62	< 4.52	6.9	5.24	5.56	< 4.52	< 4.52	< 4.52	< 4.52	5.62	< 4.52	
Cc1cc(Nc2cc(C(=O)NCCNC(=O)OC3CC/C=C/CCC3)nc(N3CCN(Cc4ccc(S(=O)(=O)F)cc4)CC3)n2)n[nH]1 (stereo not given)	< 4.52	5.96	< 4.52	< 4.52	< 4.52	< 4.52	< 4.52	< 4.52		< 4.52	< 4.52									5.2							
C#CCNC(=O)c1cc(Nc2cc(C3CC3)[nH]n2)nc(N2CCN(Cc3ccc(S(=O)(=O)F)cc3)CC2)n1	4.99	7.04	5.44	5.64	< 4.52	< 4.52	< 4.52			< 4.52	< 4.52	4.69	< 4.52	6.26	6.86	6.08	4.63	6.87	6.66	7.48	4.96	< 4.52	< 4.52	< 4.52	6.22	< 4.52	5.73

Continued, in another order:

pIC50 ([1]; cell material: Lysate mix)	pIC50 ([2]; cell material: Lysate mix)	pIC50 ([3]; cell material: Lysate mix)	pIC50 [4]	pIC50 [5]	pIC50 [6]	pIC50 ([8]; cell material: Lysate mix)	pIC50 ([9]; cell material: Lysate mix)	pIC50 ([10]; cell material: Jurkat cells)	pIC50 ([10]; cell material: Lysate mix)	pIC50 ([11]; cell material: Lysate mix)	SMILES	pIC50 ([1]; cell material: Jurkat cells)	pIC50 ([1]; cell material: Jurkat lysate)	pIC50 ([2]; cell material: Jurkat cells)	pIC50 ([2]; cell material: Jurkat lysate)	pIC50 ([3]; cell material: Jurkat cells)	pIC50 ([3]; cell material: Jurkat lysate)	pIC50 ([7]; cell material: Jurkat cells)	pIC50 ([7]; cell material: Jurkat lysate)	pIC50 ([7]; cell material: Lysate mix)	pIC50 ([8]; cell material: Jurkat cells)	pIC50 ([8]; cell material: Jurkat lysate)	pIC50 ([9]; cell material: Jurkat lysate)	pIC50 ([10]; cell material: Jurkat lysate)	pIC50 ([11]; cell material: Jurkat cells)	pIC50 ([11]; cell material: Jurkat lysate)	pIC50 ([9]; cell material: Jurkat cells)
4.87	6.68	5.35	5.46	< 4.52	4.69	< 4.52	4.94		< 4.52	< 4.52	CCNC(=O)c1cc(Nc2cc(C3CC3)[nH]n2)nc(N2CCN(Cc3ccc(S(=O)(=O)F)cc3)CC2)n1									7.29							
< 4.52	5.97	4.98	5.28	< 4.52	< 4.52	< 4.52	< 4.52		< 4.52	< 4.52	CCNC(=O)c1cc(Nc2cc(C)[nH]n2)nc(N2CCN(Cc3ccc(S(=O)(=O)F)cc3)CC2)n1									7.27							
< 4.52	5.98	5.15	5.27	< 4.52	< 4.52	< 4.52	< 4.52		< 4.52	< 4.52	C#CCNC(=O)c1cc(Nc2cc(C)[nH]n2)nc(N2CCN(Cc3ccc(S(=O)(=O)F)cc3)CC2)n1									6.52							
